Source: patent US20250171417A1, “HETEROCYCLIC DERIVATIVE, AND COMPOSITION AND PHARMACEUTICAL USE THEREOF” (Xizang Haisco Pharmaceutical Co., Ltd., priority 2021, published 2025)

Assays:
[1] = tested on: Prostate cancer cells 22RV1; test: Experiment on inhibiting 22RV1 cell proliferation (CellTiter-Glo, 7 days); type: cell-based; conditions: Homo sapiens, 168 h, 22RV1 cells, 7 days incubation, cells with nM printed beside the value, read-out: IC50 values for inhibition of 22RVI cells
Outline: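 22RV1 cells at 2000/well in 1% charcoal-stripped-FBS phenol red-free medium, treated next day with compound for 7 days at 37 °C, 5% CO2. Viability by CellTiter-Glo luminescence; inhibition relative to DMSO vehicle, IC50 from dose-response fit.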

[2] = biological target: T1, AR splice variant 7 (AR-V7) (Homo sapiens, UniProt P10275); test: Degradation experiment on AR splice variant 7 (AR-V7) in 22RV1 cells; type: cell-based; conditions: 24 h
T1 construct: host or cells: 22RV1 prostate cancer cells
T1 sequence (P10275 1-644 isoform P10275-3): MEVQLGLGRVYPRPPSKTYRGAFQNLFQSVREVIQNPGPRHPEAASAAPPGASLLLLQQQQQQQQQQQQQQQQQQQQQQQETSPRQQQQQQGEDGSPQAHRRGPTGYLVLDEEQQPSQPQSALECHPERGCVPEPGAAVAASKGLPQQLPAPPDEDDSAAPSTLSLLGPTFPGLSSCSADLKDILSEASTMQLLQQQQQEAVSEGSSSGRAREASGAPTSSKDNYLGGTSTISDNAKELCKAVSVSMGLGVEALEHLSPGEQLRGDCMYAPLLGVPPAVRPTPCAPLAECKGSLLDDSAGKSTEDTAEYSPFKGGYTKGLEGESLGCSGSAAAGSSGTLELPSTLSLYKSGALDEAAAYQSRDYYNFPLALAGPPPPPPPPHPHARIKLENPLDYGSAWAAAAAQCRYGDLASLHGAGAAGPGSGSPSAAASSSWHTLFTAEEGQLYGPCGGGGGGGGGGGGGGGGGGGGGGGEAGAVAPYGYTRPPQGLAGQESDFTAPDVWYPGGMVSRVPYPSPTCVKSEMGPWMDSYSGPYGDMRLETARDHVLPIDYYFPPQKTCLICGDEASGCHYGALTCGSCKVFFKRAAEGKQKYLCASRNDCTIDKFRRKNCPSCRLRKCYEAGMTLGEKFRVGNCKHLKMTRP
Protocol: Prostate cancer cells 22RV1 were purchased from ATCC, the cell medium was 1640+10% FBS, and the cells were cultured in an incubator at 37° C. under 5% CO2. On day 1, the cells in an exponential phase were collected. With a 1% css-FBS phenol red-free medium, the cell suspension was adjusted to a corresponding concentration and plated into a 6-well plate at 1 mL/well and 300000 cells/well. The next day, a 1% css-FBS phenol-free medium containing the compound to be tested was added, a 1% css-FBS phenol-free medium containing 0.2% DMSO was added to one well as DMSO vehicle control, and the 6-well plate was cultured in an incubator at 37° C. under 5% CO2. After 24 h, the cells were digested with pancreatin and collected into a 1.5 mL centrifuge tube. 15 μL of RIPA lysate (containing 1× protease inhibitor cocktail) was added to each well, and the cells were lysed on ice for 15 min and then centrifuged at 12000 g at 4° C.′ for 10 min. The supernatant protein samples were collected, and protein quantification was performed by a BCA method. AR-V7 was detected using fully automatic protein expression quantitative analysis, which involved diluting the protein to be tested to 2 mg/mL, 4 μL of the diluted protein samples were added to 1 μL of 5× Master Mix (provided in the kit), and the prepared samples were denatured at 95° C. for 5 min and placed on ice for use. The primary antibodies. AR V7 (CST, 19672S) and β-actin (CST, 3700), were diluted with Antibody Diluent II (provided in the kit) at a dilution ratio of 1:10 and 1:500, respectively. The secondary antibody was a mixed goat anti-mouse and goat anti-rabbit secondary antibody in a ratio of 1:1, and the color development solution was a mixed solution of Lumino-S and Peroxide in a ratio of 1:1. The prepared reagents were successively added to an assay plate according to instructions of the kit and detected on an instrument. Western blot band processing was performed using “Compass for SW”, a fully automatic protein expression quantitative analysis software, in which western blot bands were automatically simulated based on signal values. The degradation rate of AR-V7 (4) relative to vehicle control at different compound concentrations was calculated according to formula (4), wherein AR-V7compound was the relative peak area of AR-V7 in the treated group, and AR-V7solvent was the relative peak area of AR-V7 in the vehicle control group.
DC50 calculation: the compound concentration DC50 values at which the degradation rate of AR-V7 was 50% were calculated using Graphpad software and analyzed using log (inhibitor) vs. response-Variable slope (four parameters) function according to formula (4).

[3] = Pharmacokinetic test in rats; type: in vivo; conditions: rat, plasma, po, male SD rats; for bioavailability: i.g. 5 mg/kg vs intravenous 2 mg/kg; for AUC(0-t): i.g. 5 mg/kg
Protocol: Test objective: In this experiment, a single dose of each test compound was administered to SD rats intravenously and intragastrically, and the concentrations of the test compounds in plasma of rats were measured to evaluate the pharmacokinetic characteristics of the test compounds in rats.
Experimental animals: male SD rats, 200-250 g, 6-8 weeks old, 6 rats/compound, purchased from Chengdu Ddossy Experimental Animals Co., Ltd.
Experimental method: on the day of the test, 6 SD rats were randomly grouped according to their body weight; the animals were fasted with water available for 12 to 14 hours one day before the administration of a test compound, and were fed 4 hours after the administration.
Sampling: Before and after the administration, 0.1 mL of blood samples were drawn from the orbits of the animals under isoflurane anesthesia, and placed in an EDTAK2 centrifuge tube. Centrifugation was carried out at 5000 rpm at 4° C. for 10 min, and the plasma was collected.
Time points for plasma collection in IV&PO group: 0, 5 min, 15 min, 30 min, 1 h, 2 h, 4 h, 6 h, 8 h, and 24 h.
Before analysis and detection, all samples were stored at −60° C. The samples were analyzed quantitatively by LC-MS/MS.

IC50 [1] | DC50 [2] | bioavailability [3] | AUC(0-t) [3] | SMILES
< 50 nM | < 500 nM | 90.9 ± 2.4% | 16000 ± 431 ng·h/mL | CC(C)(C(=O)Nc1ccc(C(F)(F)F)cc1Cl)n1cc(C#CC2CN(c3ccc4c(c3)C(=O)N(C3CCC(=O)NC3=O)C4=O)C2)cn1 (centres unmarked) [Compound 11, N-(2-chloro-4-(trifluoromethyl)phenyl)-2-(4-((1-(2-(2,6-dioxopiperidin-3-yl)-1,3-dioxoisoindolin-5-yl)azetidin-3-yl)ethynyl)-1H-pyrazol-1-yl)-2-methylpropanamide]
< 50 nM | < 500 nM | – | – | O=C1CCC(N2C(=O)c3ccc(N4CC(C#Cc5cnn(C6(C(=O)Nc7ccc(C(F)(F)F)cc7Cl)CCC6)c5)C4)cc3C2=O)C(=O)N1 (centres unmarked) [Compound 14, N-(2-chloro-4-(trifluoromethyl)phenyl)-1-(4-((1-(2-(2,6-dioxopiperidin-3-yl)-1,3-dioxoisoindolin-5-yl)azetidin-3-yl)ethynyl)-1H-pyrazol-1-yl)cyclobutane-1-carboxamide]
< 100 nM | < 500 nM | 73.2 ± 10% | 10200 ± 1460 ng·h/mL | CC(C)(C(=O)Nc1ccc(C(F)(F)F)cc1Cl)n1cc(C#CC2CN(c3cc4c(cc3F)C(=O)N(C3CCC(=O)NC3=O)C4=O)C2)cn1 (centres unmarked) [Compound 15]
< 50 nM | < 500 nM | 69.1 ± 12% | 15200 ± 2610 ng·h/mL | CC(C)(C(=O)Nc1ccc(C#N)c2ccccc12)n1cc(C#CC2CN(c3ccc4c(c3)C(=O)N(C3CCC(=O)NC3=O)C4=O)C2)cn1 (centres unmarked) [Compound 21, N-(4-cyanonaphthalen-1-yl)-2-(4-((1-(2-(2,6-dioxopiperidin-3-yl)-1,3-dioxoisoindolin-5-yl)azetidin-3-yl)ethynyl)-1H-pyrazol-1-yl)-2-methylpropanamide]
< 50 nM | < 500 nM | – | – | CC(C)(C(=O)Nc1ccc(C(F)(F)F)cc1Br)n1cc(C#CC2CN(c3ccc4c(c3)C(=O)N(C3CCC(=O)NC3=O)C4=O)C2)cn1 (centres unmarked) [Compound 28, N-(2-bromo-4-(trifluoromethyl)phenyl)-2-(4-((1-(2-(2,6-dioxopiperidin-3-yl)-1,3-dioxoisoindolin-5-yl)azetidin-3-yl)ethynyl)-1H-pyrazol-1-yl)-2-methylpropanamide]
< 100 nM | < 500 nM | – | 48700 ± 7060 ng·h/mL | CC(C)(C(=O)Nc1ccc(C#N)c(C2CC2)c1)n1cc(C#CC2CN(c3ccc4c(c3)C(=O)N(C3CCC(=O)NC3=O)C4=O)C2)cn1 (centres unmarked) [Compound 29, N-(4-cyano-3-cyclopropylphenyl)-2-(4-((1-(2-(2,6-dioxopiperidin-3-yl)-1,3-dioxoisoindolin-5-yl)azetidin-3-yl)ethynyl)-1H-pyrazol-1-yl)-2-methylpropanamide]
< 50 nM | < 500 nM | 98.1 ± 6.6% | 22500 ± 1510 ng·h/mL | CC(C)(C(=O)Nc1ccc(C(F)(F)F)cc1C1CC1)n1cc(C#CC2CN(c3ccc4c(c3)C(=O)N(C3CCC(=O)NC3=O)C4=O)C2)cn1 (centres unmarked) [Compound 30, N-(2-cyclopropyl-4-(trifluoromethyl)phenyl)-2-(4-((1-(2-(2,6-dioxopiperidin-3-yl)-1,3-dioxoisoindolin-5-yl)azetidin-3-yl)ethynyl)-1H-pyrazol-1-yl)-2-methylpropanamide]
< 50 nM | < 500 nM | – | – | CC(C)(C(=O)Nc1ccc(C#N)cc1C1CC1)n1cc(C#CC2CN(c3ccc4c(c3)C(=O)N(C3CCC(=O)NC3=O)C4=O)C2)cn1 (centres unmarked) [Compound 39, N-(4-cyano-2-cyclopropylphenyl)-2-(4-((1-(2-(2,6-dioxopiperidin-3-yl)-1,3-dioxoisoindolin-5-yl)azetidin-3-yl)ethynyl)-1H-pyrazol-1-yl)-2-methylpropanamide]
< 50 nM | < 500 nM | – | – | CC(C)(C(=O)Nc1ccc(C#N)c2c1CCCC2)n1cc(C#CC2CN(c3ccc4c(c3)C(=O)N(C3CCC(=O)NC3=O)C4=O)C2)cn1 (centres unmarked) [Compound 56, N-(4-cyano-5,6,7,8-tetrahydronaphthalen-1-yl)-2-(4-((1-(2-(2,6-dioxopiperidin-3-yl)-1,3-dioxoisoindolin-5-yl)azetidin-3-yl)ethynyl)-1H-pyrazol-1-yl)-2-methylpropanamide]
< 50 nM | < 500 nM | 52.4 ± 3.1% | 14000 ± 816 ng·h/mL | CC#Cc1cc(C(F)(F)F)ccc1NC(=O)C(C)(C)n1cc(C#CC2CN(c3ccc4c(c3)C(=O)N(C3CCC(=O)NC3=O)C4=O)C2)cn1 (centres unmarked) [Compound 118, 2-(4-((1-(2-(2,6-dioxopiperidin-3-yl)-1,3-dioxoisoindolin-5-yl)azetidin-3-yl)ethynyl)-1H-pyrazol-1-yl)-2-methyl-N-(2-(prop-1-yn-1-yl)-4-(trifluoromethyl)phenyl) propanamide]
< 50 nM | – | 76.1 ± 716% | 15700 ± 3200 ng·h/mL | CC(C)(C(=O)Nc1ccc(C#N)c2c1CCC2)n1cc(C#CC2CN(c3ccc4c(c3)C(=O)N(C3CCC(=O)NC3=O)C4=O)C2)cn1 (centres unmarked) [Compound 141, N-(7-cyano-2,3-dihydro-1H-inden-4-yl)-2-(4-((1-(2-(2,6-dioxopiperidin-3-yl)-1,3-dioxoisoindolin-5-yl)azetidin-3-yl)ethynyl)-1H-pyrazol-1-yl)-2-methylpropanamide]
< 50 nM | < 500 nM | – | – | N#Cc1nn(C2(C(=O)Nc3ccc(C(F)(F)F)cc3Cl)CCC2)cc1C#CC1CN(c2ccc3c(c2)C(=O)N(C2CCC(=O)NC2=O)C3=O)C1 (centres unmarked) [Compound 160, N-(2-chloro-4-(trifluoromethyl)phenyl)-1-(3-cyano-4-((1-(2-(2,6-dioxopiperidin-3-yl)-1,3-dioxoisoindolin-5-yl)azetidin-3-yl)ethynyl)-1H-pyrazol-1-yl)cyclobutane-1-carboxamide]
< 50 nM | < 500 nM | – | – | Cc1nn(C2(C(=O)Nc3ccc(C(F)(F)F)cc3Cl)CCC2)cc1C#CC1CN(c2ccc3c(c2)C(=O)N(C2CCC(=O)NC2=O)C3=O)C1 (centres unmarked) [Compound 164, N-(2-chloro-4-(trifluoromethyl)phenyl)-1-(4-((1-(2-(2,6-dioxopiperidin-3-yl)-1,3-dioxoisoindolin-5-yl)azetidin-3-yl)ethynyl)-3-methyl-1H-pyrazol-1-yl)cyclobutane-1-carboxamide]
